Experimental data from patent publication US8758816B2, “Compositions comprising azelastine and methods of use thereof” (priority 2004, dated 2014).
Counter-ions that a name gives are not always drawn.

System: patients with seasonal allergic rhinitis (SAR)
Assay: MP 428 two-week randomized double-blind study: Total Nasal Symptom Score (TNSS), change from baseline
Type: in vivo, human
Design: key to Change from Baseline in AM TNSS, Mean / Change from Baseline in AM TNSS, LS Mean / Change from Baseline in AM TNSS, Median: TNSS sum of 4 symptoms each 0-3 (0=none, 3=severe); change from baseline
Experimental: A two-week, randomized, double-blind study, which evaluated the effects of the co-administration of ASTELIN® (azelastine hydrochloride (HCl)) and FLONASE® (fluticasone propionate) compared to either product alone in patients with seasonal allergic rhinitis (SAR) was conducted during the 2006 Texas mountain cedar season. After a 5-day placebo lead-in period, 151 patients with moderate-to-severe allergic rhinitis symptoms were randomized to either: (1) (49 total patients) ASTELIN® (azelastine hydrochloride (HCl)) plus placebo saline nasal spray 2 sprays per nostril, 15 minutes apart, twice daily (AM & PM); (2) (50 total patients) FLONASE® (fluticasone propionate) plus placebo saline nasal spray, 2 sprays per nostril, 15 minutes apart, once daily (AM) and two sessions of placebo saline nasal spray, 2 sprays per nostril, 15 minutes apart (PM); or (3) (52 total patients) the co-administration of ASTELIN® (azelastine hydrochloride (HCl)) 2 sprays per nostril plus FLONASE® (fluticasone propionate) 2 sprays per nostril (AM), 15 minutes apart, and ASTELIN® (azelastine hydrochloride (HCl)) 2 sprays per nostril plus placebo saline nasal spray, 15 minutes apart, (PM) for a 2-week double-blind treatment period.
The primary efficacy variable was the change from baseline in the Total Nasal Symptom Score (TNSS), which comprised sneezing, itchy nose, runny nose, and nasal congestion (individual symptoms scores were assigned a value between 0 and 3, where 0=no symptoms and 3=severe symptoms). This study was not statistically designed to assess the differences between ASTELIN® and FLONASE®.

[1] = Day 2, Intent-to-Treat Population
[2] = Day 3, Intent-to-Treat Population
[3] = Day 4, Intent-to-Treat Population
[4] = Day 5, Intent-to-Treat Population

CN1CCCC(n2nc(Cc3ccc(Cl)cc3)c3ccccc3c2=O)CC1 (racemic) [Azelastine, (±)-1-(2H)-phthalazinone, 4-[(4-chlorophenyl)methyl]-2-(hexahydro-1-methyl-1H-azepin-4-yl)-, mono-hydrochloride]
Primary Reason for Discontinuation From Study: Treatment Failure (All Randomized Patients): 0 (0.0) N (%)
Change from Baseline in AM TNSS, LS Mean [1]: −1.46
Change from Baseline in AM TNSS, Mean [1]: −1.48
Change from Baseline in AM TNSS, Median [1]: −1.25
Change from Baseline in AM and PM Combined TNSS, Mean [1]: −3.23
Change from Baseline in AM and PM Combined TNSS, Median [1]: −2.67
Change from Baseline in PM TNSS, LS Mean [1]: −1.65
Change from Baseline in PM TNSS, Mean [1]: −1.76
Change from Baseline in PM TNSS, Median [1]: −1.00
Percent Change from Baseline in AM TNSS, LS Mean [1]: −15.45%
Percent Change from Baseline in AM TNSS, Mean [1]: −15.79%
Percent Change from Baseline in AM TNSS, Median [1]: −14.29%
Percent Change from Baseline in AM and PM Combined TNSS, LS Mean [1]: −16.31%
Percent Change from Baseline in AM and PM Combined TNSS, Mean [1]: −16.93%
Percent Change from Baseline in AM and PM Combined TNSS, Median [1]: −12.31%
Percent Change from Baseline in PM TNSS, LS Mean [1]: −17.15%
Percent Change from Baseline in PM TNSS, Mean [1]: −17.76%
Percent Change from Baseline in PM TNSS, Median [1]: −10.00%
Change from Baseline in AM and PM Combined TNSS, LS Mean (Day 2, Intent-to-Treat Population, ANCOVA model): −3.10
Change from Baseline in AM and PM Combined TNSS, LS Mean (Day 2, Per-Protocol Population): −3.08
Change from Baseline in AM and PM Combined TNSS, Mean (Day 2, Per-Protocol Population): −3.23
Change from Baseline in AM and PM Combined TNSS, Median (Day 2, Per-Protocol Population): −2.67
Percent Change from Baseline in AM and PM Combined TNSS, LS Mean (Day 2, Per-Protocol Population): −16.25%
Percent Change from Baseline in AM and PM Combined TNSS, Mean (Day 2, Per-Protocol Population): −16.93%
Percent Change from Baseline in AM and PM Combined TNSS, Median (Day 2, Per-Protocol Population): −12.31%
Change from Baseline in AM TNSS, LS Mean [2]: −1.28
Change from Baseline in AM TNSS, Mean [2]: −1.29
Change from Baseline in AM TNSS, Median [2]: −0.80
Change from Baseline in AM and PM Combined TNSS, Mean [2]: −3.28
Change from Baseline in AM and PM Combined TNSS, Median [2]: −1.67
Change from Baseline in PM TNSS, LS Mean [2]: −1.91
Change from Baseline in PM TNSS, Mean [2]: −1.98
Change from Baseline in PM TNSS, Median [2]: −1.50
Percent Change from Baseline in AM TNSS, LS Mean [2]: −13.37%
Percent Change from Baseline in AM TNSS, Mean [2]: −13.75%
Percent Change from Baseline in AM TNSS, Median [2]: −7.89%
Percent Change from Baseline in AM and PM Combined TNSS, LS Mean [2]: −16.85%
Percent Change from Baseline in AM and PM Combined TNSS, Mean [2]: −17.08%
Percent Change from Baseline in AM and PM Combined TNSS, Median [2]: −8.11%
Percent Change from Baseline in PM TNSS, LS Mean [2]: −19.66%
Percent Change from Baseline in PM TNSS, Mean [2]: −20.01%
Percent Change from Baseline in PM TNSS, Median [2]: −15.15%
Change from Baseline in AM and PM Combined TNSS, LS Mean (Day 3, Intent-to-Treat Population, ANCOVA model): −3.21
Change from Baseline in AM and PM Combined TNSS, LS Mean (Day 3, Per-Protocol Population): −3.19
Change from Baseline in AM and PM Combined TNSS, Mean (Day 3, Per-Protocol Population): −3.28
Change from Baseline in AM and PM Combined TNSS, Median (Day 3, Per-Protocol Population): −1.67
Percent Change from Baseline in AM and PM Combined TNSS, LS Mean (Day 3, Per-Protocol Population): −16.85%
Percent Change from Baseline in AM and PM Combined TNSS, Mean (Day 3, Per-Protocol Population): −17.08%
Percent Change from Baseline in AM and PM Combined TNSS, Median (Day 3, Per-Protocol Population): −8.11%
Change from Baseline in AM TNSS, LS Mean [3]: −1.79
Change from Baseline in AM TNSS, Mean [3]: −1.76
Change from Baseline in AM TNSS, Median [3]: −1.33
Change from Baseline in AM and PM Combined TNSS, Mean [3]: −3.93
Change from Baseline in AM and PM Combined TNSS, Median [3]: −2.92
Change from Baseline in PM TNSS, LS Mean [3]: −2.09
Change from Baseline in PM TNSS, Mean [3]: −2.17
Change from Baseline in PM TNSS, Median [3]: −2.20
Percent Change from Baseline in AM TNSS, LS Mean [3]: −18.88%
Percent Change from Baseline in AM TNSS, Mean [3]: −18.84%
Percent Change from Baseline in AM TNSS, Median [3]: −14.89%
Percent Change from Baseline in AM and PM Combined TNSS, LS Mean [3]: −20.41%
Percent Change from Baseline in AM and PM Combined TNSS, Mean [3]: −20.50%
Percent Change from Baseline in AM and PM Combined TNSS, Median [3]: −14.29%
Percent Change from Baseline in PM TNSS, LS Mean [3]: −21.42%
Percent Change from Baseline in PM TNSS, Mean [3]: −21.99%
Percent Change from Baseline in PM TNSS, Median [3]: −23.08%
Change from Baseline in AM and PM Combined TNSS, LS Mean (Day 4, Intent-to-Treat Population, ANCOVA model): −3.89
Change from Baseline in AM and PM Combined TNSS, LS Mean (Day 4, Per-Protocol Population): −3.87
Change from Baseline in AM and PM Combined TNSS, Mean (Day 4, Per-Protocol Population): −3.93
Change from Baseline in AM and PM Combined TNSS, Median (Day 4, Per-Protocol Population): −2.92
Percent Change from Baseline in AM and PM Combined TNSS, LS Mean (Day 4, Per-Protocol Population): −20.39%
Percent Change from Baseline in AM and PM Combined TNSS, Mean (Day 4, Per-Protocol Population): −20.50%
Percent Change from Baseline in AM and PM Combined TNSS, Median (Day 4, Per-Protocol Population): −14.29%
Change from Baseline in AM TNSS, LS Mean [4]: −2.25
Change from Baseline in AM TNSS, Mean [4]: −2.23
Change from Baseline in AM TNSS, Median [4]: −1.67
Change from Baseline in AM and PM Combined TNSS, Mean [4]: −4.48
Change from Baseline in AM and PM Combined TNSS, Median [4]: −3.67
Change from Baseline in PM TNSS, LS Mean [4]: −2.19
Change from Baseline in PM TNSS, Mean [4]: −2.25
Change from Baseline in PM TNSS, Median [4]: −1.20
Percent Change from Baseline in AM TNSS, LS Mean [4]: −23.57%
Percent Change from Baseline in AM TNSS, Mean [4]: −23.62%
Percent Change from Baseline in AM TNSS, Median [4]: −15.79%
Percent Change from Baseline in AM and PM Combined TNSS, LS Mean [4]: −23.20%
